According to US10472330B2, “Substituted triazenes protected from degradation by carboxylation of N1” (ARIZONA BOARD OF REGENTS ON BEHALF OF THE UNIVERSITY OF …, priority 2015, dated 2019):
Blank lines part the entries; values can stand above or below the molecule they belong to.

What was measured:
Format in all cases: physicochemical
[1] = Hydrolysis (deprotection) rate of protected triazabutadienes; conditions: relative to ethyl carbamate 7, FIG. 8G
Procedure: The reaction is assumed to be second order with the addition of hydroxide to be the rate-determining step.
Without wishing to limit the present invention to any theory or mechanism, it is believed that this can be rationalized by a model whereby the carbonyl is stabilized by being more electron rich and thus less prone to nucleophilic attack.
The reaction is assumed to be second order with the addition of hydroxide to be the rate-determining step. […] Compound was in a concentration of 31 μM in 25 mM sodium borate buffer of pH 10 with scans every 60 seconds. […] Scans were obtained every 60 seconds.

[2] = Decomposition in D2O / buffers followed by NMR; conditions: for Compound consumed after 24 hours: D2O, in the dark
Procedure: For decomposition experiments, buffers were made to the appropriate pH in a 9:1 mix of H2O:D2O. These solutions were added to the compound being assayed such that the buffer capacity was at least 10 fold the concentration of the compound. Some experiments used 5 mg compound in 0.5 mL of buffer (e.g., pH 5 acetate buffer at 25 degrees C.). These were immediately inserted into an NMR instrument and scans were taken at even time intervals to calculate the half-life of the compound based on integration.
(§1) To render the triazabutadiene water-soluble, methyl imidazole was alkylated with propane sultone to provide the Zwitterionic NHC precursor Compound 5a (see FIG. 6E). […] Compound 6a was highly colored, so its pH dependence was studied using UV/vis. The reactions were not only pH-, but also scan-frequency dependent. Upon finding this, the stability of Compound 6a was studied in D2O in the dark using NMR. Even in the dark it was unstable, but not in the diazonium-forming way. Both Compound 6b and a more hindered mesityl (Mes) substituted Compound 6c (see FIG. 6E) were synthesized to stabilize what was initially considered to be a rearrangement pathway that could be blocked by steric repulsion. […] Dissolution in 0.1 N NaOH rendered all compounds stable (e.g., no detectable degradation after 24 hours in the dark).
As mentioned above, Compound 6c was reasonably stable in pure D2O. Upon adjusting the pH to 5 with HCl, a rapid initial consumption of Compound 6c to Compound 7 (see FIG. 6E) and a benzenediazonium salt was noted. After this initial burst of reactivity, a slowing and apparent arresting of the reaction was noted. At this pH the hydronium was the limiting reagent. All future reactions were run in buffers with a buffer capacity sufficient to maintain a large excess of hydronium ions. The experiments were performed in 90:10 H2O:D2O buffered solutions to minimize considerations of pH vs. pD. The decomposition to diazonium salts and Compound 7 was measured as a function of pH in phosphate/citrate buffers from pH 4-7 and in a phosphate buffer from pH 6-8. All runs provided linear correlations of concentration and time, indicating a pseudo-zero order reaction (first order with respect to hydronium ion with a large excess of hydronium ions). While the peaks for Compound 7 remained constant, the peaks associated with Compound 6c drifted downfield as the reaction progressed. This drifting was highly reproducible across samples and buffers, but the underlying cause is not understood at this time. A sigmoidal correlation between rate and buffer pH centered at pH 6 was obtained. When resorcinol was not added to consume the diazonium species, 4-phenylazophenol (Compound 8) was observed (see FIG. 6F). Compound 8 came from the decomposition of one diazonium ion to phenol followed by reaction with a second diazonium ion. The instability of Compound 6c in a pH 7 phosphate buffer was surprising given the stability in D2O. Compound 6c was tested in a non-buffered 90:10 H2O:D2O solution and observed only […] after 6 hours.
(§2) To further examine the reactivity of this class of compounds, variants Compound 6d and Compound 6e were synthesized (see FIG. 6G). It was hypothesized that the p-methoxy and p-nitro analogs (Compound 6d and Compound 6e, respectively) would display different reactivity profiles. […] After collecting the precipitate and dissolving it in deuterated methanol, no change was observed from a sample of Compound 6e that had never been exposed to a buffered solution. […] It is possible that: 1) that the sodium salt of Compound 6e is much less soluble than the potassium salt; or 2) with different solvating ions present the sulfonate interacts with the electron-poor N2 nitrogen atom of the triazabutadiene to break conjugation and form an insoluble complex (this is backed by a reversible color change of the starting rust-red solid, to the light yellow precipitate). […]

[3] = Photo-induced degradation of triazabutadienes under hand-held UV lamp, followed by NMR; conditions: buffered borate solution, UV lamp, NMR integration
Procedure: (i) The reaction was monitored by comparing starting materials (A, C, D, and E) with product (B); (ii) Peak absorption and extinction coefficients for all of the compounds were excitable by the UV source used; (iii) Time-dependent conversion of compounds was measured by NMR integration.
Referring to FIG. 5A, in some embodiments, triazabutadiene molecules of the present invention may readily photoisomerize to a more reactive Z-form. As an example, an aqueous solution of Compound A was irradiated with a simple hand-held UV lamp (“365 nm,” measured at 350 nm). Consumption of Compound A was observed after only a few hours. […] Without wishing to limit the present invention to any theory or mechanism, it was hypothesized that if a two-electron process were happening, then Compound A-Z would be more basic than Compound A-E. A 1.0 N NaOH solution of Compound A was treated with light. […] Benzene diazonium ions also absorb UV light to expel nitrogen and generate a benzene radical. In order to resolve if the initial cleavage undergoes a radical homolytic mechanism versus a two-electron heterolytic mechanism, a trapping experiment using resorcinol was conducted. (Resorcinol was chosen because it can serve a dual role as a radical scavenger and a trap benzene diazonium species that could be formed.) An excess of resorcinol was added to a pH 9 borate-buffered solution of Compound A and the mixture was irradiated with light. The known azobenzene, Sudan Orange G, was formed in a 65% yield (versus 4% for the non-irradiated reaction). Derivatives of Compound A were made to examine the effects of electronic perturbations on the light-induced degradation. […] A buffered borate solution was chosen due to its alkaline nature and lack of complicating signals in the NMR experiment. Compounds C-E all have absorption spectra that are well within the range of the UV lamp (see FIG. 5A(ii)).

[4] = In situ real-time pH measurement upon UV irradiation; conditions: compared with Compound A
Procedure: In an effort to examine the rate order for the pH-increasing reaction more carefully, in situ, real-time pH measurements were acquired. Compound A was dissolved in water and the pH of the solution was adjusted to 9 such that it would not form Compound B in the absence of light. […] This spike was not at all consistent with the model of the pH increase being solely linked to the concentration of Compound B being generated.
A sample was irradiated and then the light was turned off once the pH of the solution started to increase noticeably. […] The experiment was repeated with increasing times of irradiation, and a saw-tooth pattern was obtained. The process was not completely reversible due to some degradation to Compound B. Indeed, triazabutadiene Compound A can serve a dual role of being a photo-masked base (see FIG. 4B(i)), and a base whose intrinsic functional group properties are altered photochemically (FIG. 4B(iii)).
Referring to FIG. 5A(iii), Compound C and Compound D were examined in an effort to find a base that was reversibly basic but also more resistant to degradation.

Solubility observations = assay: Solubility observations
Procedure: It is possible that Compound A may be useful as a photo-catalytic base in the context of organic reactions. […] As noted previously, Compound A is quite stable to an excess of acetic acid in DMSO, showing only 12% degradation over 14 hours at room temperature. […] To confirm that this was due to the acid, a solution of Compound A (in pure DMSO) was irradiated. After four hours of constant irradiation in acid-free DMSO, an E:Z ratio of nearly 50:50 was observed.
(§3) As another non-limiting example, an azide (e.g., NHS-azide) to N-heterocyclic carbene (NHC) route may be used to synthesize triazabutadiene molecules (e.g., see FIG. 6C). For example, as shown in Compound 4 of FIG. 6D, a triazabutadiene molecule was synthesized from dimethyl imidazole derived NHC and phenyl azide. […] This change was confirmed to coincide with diazonium formation by trapping the reactive species with resorcinol to provide known diazo dye Sudan Orange G. When the triazabutadiene molecule (Compound 4) was treated with the much less acidic acetic acid, the same product was obtained.
as §1, §2

[5] = Acid-triggered diazonium formation; conditions: methanolic HCl or exposure to acid; trapped with resorcinol or Tyr 6
Source text: as §3
To further examine the reactivity of this class of compounds, variants Compound 6d and Compound 6e were synthesized (see FIG. 6G). It was hypothesized that the p-methoxy and p-nitro analogs (Compound 6d and Compound 6e, respectively) would display different reactivity profiles. […] After collecting the precipitate and dissolving it in deuterated methanol, no change was observed from a sample of Compound 6e that had never been exposed to a buffered solution. […]

SMILES: CCOC(=O)N(N=Nc1n(-c2c(C)cc(C)cc2C)cc[n+]1-c1c(C)cc(C)cc1C)c1ccc(C)cc1.[Cl-] [Compound 8]
Effect of substituent on rate of deprotection / hydrolysis [1]: slowed the rate of deprotection moderately

SMILES: COc1ccc(N=NN=c2n(CCCS(=O)(=O)[O-])ccn2-c2c(C)cc(C)cc2C)cc1.[K+] [Compound 6d]
Compound consumed after 24 hours ([2]; NMR): 26%

SMILES: Cc1cc(C)c(-n2ccn(CCCS(=O)(=O)[O-])c2=NN=Nc2cccc([N+](=O)[O-])c2)c(C)c1.[K+] [Compound C]
Relative rate of light-induced degradation [3]: slower than Compound A
pH change on irradiation [4]: slow subtle change to the pH

SMILES: Cc1cc(C)c(-n2ccn(CCCS(=O)(=O)[O-])c2=NN=Nc2ccccc2)c(C)c1.[K+] [Compound 6c, Potassium 3-(3-mesityl-2-(phenyltriaz-2-en-1-ylidene)-2,3-dihydro-1H-imidazol-1-yl) propane-1-sulfonate]
Compound consumed after 24 hours ([2]; NMR): less than 10%
Compound consumed after 6 hours ([2]; non-buffered 90:10 H2O:D2O): > 7%
pH at centre of sigmoidal correlation between decomposition rate and buffer pH ([2]; phosphate/citrate pH 4-7 and phosphate pH 6-8 buffers, 90:10 H2O:D2O): 6

SMILES: CC(C)(C)n1ccn(CCCS(=O)(=O)O)c1=NN=Nc1ccccc1 [Compound 6b]
Compound consumed after 24 hours ([2]; NMR): 50%

SMILES: Cc1cc(C)c(-n2ccn(CCCS(=O)(=O)[O-])c2=NN=Nc2ccc([N+](=O)[O-])cc2)c(C)c1.[K+] [Compound 6e]
Behaviour in buffered solution (solubility) (Solubility observations; pH 5, 6 and 7 phosphate/citrate buffer): rapidly precipitated out of solution
Stability after 24 hours ([2]; pure D2O, dark, room temperature, NMR): stable to within the detection limit of NMR
Response to acid (diazonium formation) [5]: immediate color change

SMILES: Cc1cc(C)c(-n2ccn(CCCS(=O)(=O)[O-])c2=NN=Nc2ccc([N+](=O)[O-])cc2)c(C)c1.[K+] [Compound E]
Relative rate of light-induced degradation [3]: recalcitrant to degradation

SMILES: Cn1ccn(CCCS(=O)(=O)O)c1=NN=Nc1ccccc1 [Compound 6a]
Water solubility (Solubility observations): highly water soluble
Compound consumed after 24 hours ([2]; NMR): 50%

SMILES: Cn1ccn(C)c1=NN=Nc1ccccc1 [Compound 4]
Water solubility (Solubility observations): not water-soluble
Response to acid (diazonium formation) [5]: rapid color change

SMILES: Cc1cc(C)c(-n2ccn(CCCS(=O)(=O)[O-])c2=NN=Nc2ccc(C#N)cc2)c(C)c1.[K+] [Compound D]
Relative rate of light-induced degradation [3]: slower than Compound A
pH change on irradiation [4]: slow subtle change to the pH

Results, then the molecule that gave them:

Effect of substituent on rate of deprotection / hydrolysis [1]: small change in rate
SMILES: Cc1cc(C)c(-n2cc[n+](-c3c(C)cc(C)cc3C)c2N=NN(C(=O)OCC(C)(C)C)c2ccccc2)c(C)c1.[Cl-] [Compound 12]

Effect of substituent on rate of deprotection / hydrolysis [1]: rate could not be determined
SMILES: CCOC(=O)N(N=Nc1n(-c2c(C)cc(C)cc2C)cc[n+]1-c1c(C)cc(C)cc1C)c1ccc(OC)cc1.[Cl-] [Compound 9]

Effect of substituent on rate of deprotection / hydrolysis [1]: slowed hydrolysis
SMILES: CCOC(=O)N(N=Nc1n(-c2c(C)cc(C)cc2C)cc[n+]1-c1c(C)cc(C)cc1C)c1ccc([N+](=O)[O-])cc1.[Cl-] [Compound 11]

Effect of substituent on rate of deprotection / hydrolysis [1]: slowed hydrolysis
SMILES: CCOC(=O)N(N=Nc1n(-c2c(C)cc(C)cc2C)cc[n+]1-c1c(C)cc(C)cc1C)c1ccc(C(F)(F)F)cc1.[Cl-] [Compound 10]

Effect of substituent on rate of deprotection / hydrolysis [1]: small change in rate
SMILES: Cc1cc(C)c(-n2cc[n+](-c3c(C)cc(C)cc3C)c2N=NN(C(=O)OC(C)C)c2ccccc2)c(C)c1.[Cl-] [Compound 13]
